Here are results for 1 compound from US20070225253A1, “Use of a trioxopyrimidine for the treatment and prevention of bronchial inflammatory diseases” (priority 2004, published 2007).

The subject of test [1] is allergen-induced airway inflammation. Kind of test: Mouse model of asthma (OVA), intraperitoneal injection of Compound I. The conditions noted are these: 3.75 to 30 mg/kg. Format: in vivo, mice. As for the experimental part: In order to study the modulation of airway inflammation by intraperitoneal injection of Compound I, mice were sensitized with 10 μg ovalbumin alumin-adsorbed (aluminject, perbio, Erembodegem, Belgium) injected intraperitonealy at days 0 and 7 and were subsequently exposed to OVA 1% or PBS aerosols for 30 minutes from day 21 to 24. Intraperitoneal injections were performed 30 min before OVA inhalations. The different injected formulations were: cremophor 10%-DMSO 10%-PBS 80%- Compound I30 mg/kg (suspension); cremophor 10%-DMSO 10%-PBS 80%- Compound I3.75 mg/kg (solution); HPβCD 200 mM Compound I 7.5 mg/kg (solution); HPβCD 200 mM. […]
Twenty-four hours after the last allergen exposure, the bronchial hyper responsiveness was determined by measuring the Penh using a barometric plethysmograph as proposed by Hamelmann, E., et al., Am. […] The Penh was measured at baseline and 5 min after the inhalation of increasing doses (25, 50, 75 and 100 mM) of methacholine (Mch).
Immediately after the assessment of airway responsiveness, mice were sacrificed and 1 ml of PBS free of ionised calcium and magnesium but supplemented with 0.05 mM sodium EDTA was instilled 4 times via a tracheal cannula and recovered by gentle manual aspiration. […] A value from 0 to 3 per criteria was adjudged to each tissue section scored. […]

In test [2] the test system is allergen-induced airway inflammation and bronchial hyperresponsiveness. The test can be described thus: Mouse model of asthma (OVA), inhalation, short exposure challenge. Format: in vivo, mice. To be noted: inhalation of 40 mg/ml solution in pure DMSO, short-term exposure, vs DMSO alone. As for the experimental part:
In order to study the modulation of airway inflammation by intraperitoneal injection of Compound I, mice were sensitized with 10 μg ovalbumin alumin-adsorbed (aluminject, perbio, Erembodegem, Belgium) injected intraperitonealy at days 0 and 7 and were subsequently exposed to OVA 1% or PBS aerosols for 30 minutes from day 21 to 24. Intraperitoneal injections were performed 30 min before OVA inhalations. The different injected formulations were: cremophor 10%-DMSO 10%-PBS 80%- Compound I30 mg/kg (suspension); cremophor 10%-DMSO 10%-PBS 80%- Compound I3.75 mg/kg (solution); HPβCD 200 mM Compound I 7.5 mg/kg (solution); HPβCD 200 mM. All results were compared to mice sensitized and exposed to PBS and OVA treated with PBS injected intraperitonealy. In order to study the modulation of airway inflammation by inhaled Compound I, mice were sensitized as described previously. Two protocols referred to as short exposure challenge and long-term exposure challenge were used. In the short exposure challenge, mice were exposed to aerosols of Compound I-complex at concentrations of 0.03 and 0.3 mg/ml of active compound in aqueous solution of from day 21 to 27 during 30 min in a Plexiglas exposure chamber (30×20×15 cm). Mice were exposed to OVA aerosols 30 minutes after the Compound I inhalation from day 23 to 27. In the so called long-term inhalation challenge, mice were exposed to aerosols of Compound Iat concentrations of 0.03 and 0.3 mg/ml complexed with HPβCD in an aqueous solution during 30 min five days odd weeks and to OVA aerosols 3 days odd weeks for 11 weeks. No inhalations were performed during even weeks.
The aerosol were produced by using an ultrasonic nebuliser SYSTAM (Systeme Assistance Medical, Le Ledat, France), the vibration frequency of which is 2.4 MHz with variable vibration intensity and ventilation levels. Vibration intensity was fixed in position 6 and the ventilation level was 25(ν1/2)1/min.
Twenty-four hours after the last allergen exposure, the bronchial hyper responsiveness was determined by measuring the Penh using a barometric plethysmograph as proposed by Hamelmann, E., et al., Am. J Respir. Crit. Care Med. 156 (1997) 766-775). The Penh was measured at baseline and 5 min after the inhalation of increasing doses (25, 50, 75 and 100 mM) of methacholine (Mch).
Immediately after the assessment of airway responsiveness, mice were sacrificed and 1 ml of PBS free of ionised calcium and magnesium but supplemented with 0.05 mM sodium EDTA was instilled 4 times via a tracheal cannula and recovered by gentle manual aspiration. The recovered bronchoalveolar lavage fluid (BAL) was centrifuged (1800 rpm for 10 min at 4° C.). […] A value from 0 to 3 per criteria was adjudged to each tissue section scored. […]

For the compound `O=C1NC(=O)C(c2ccc(-c3ccccc3)cc2)(N2CCN(c3ccc([N+](=O)[O-])cc3)CC2)C(=O)N1` [Compound I, 5-Biphenyl-4-yl-5-[4-(4-nitro-phenyl)-piperazin-1-yl]pyrimidine-2,4,6-trione], the values for the peribronchial inflammation scores result in test [1] (equal efficacy of all tested formulations) and in test [2] (p<0.01) were “significantly lowered” and “significant decrease”, respectively. The “allergen-induced airway eosinophilic inflammation in BAL” value in test [1] (solution or precipitate, vs placebo) is “lowered”. For the same compound, in test [2] (p<0.005), the BAL eosinophils entry was “significant decrease”. Further, the bronchial hyperresponsiveness entry in test [2] (p<0.05) is “significant decrease”.
